What was measured:
[1] = Maximum (initial) soluble concentration in Aromatic 200 solvent by UV/vis; type: physicochemical; settings: for Measured Initial Concentration: Aromatic 200 (ATOSOL 200ND), targeted 10 wt% solution, filtered, diluted in xylenes, UV/vis against 0.5 and 1.7 wt% calibration
Protocol: For each Example, a calibration line is generated by preparing 0.5 and 1.7 wt% solutions of each Example using a batch of Aromatic 200 supplied from TOTAL, identified as ATOSOL 200ND, and measuring the UV/vis absorbance at these known concentrations. The solutions are heated to 60° C. with stirring overnight and allowed to cool to ambient temperature for at least several hours, preferably overnight. For the 0.5 and 1.7 wt% solutions for each marker, UV/vis measurements are prepared by diluting an aliquot of each solution (exact weight recorded) into a known amount of xylenes to target an absorbance value below approximately 2.5. […] For other Examples, several drops of the targeted 10 wt% solution are filtered and a known amount of the filtrate is diluted with a known amount of xylenes to target an absorbance value below approximately 2.5. The initial concentration is determined by measuring the absorbance value of a known concentration of the filtered and diluted aliquot taken from the targeted 10 wt% solution. The expected UV/vis absorbance value of the aliquot is calculated based on the calibration standards, and this value is compared against the actual measured absorbance value. Measured values below the expected value indicate the marker is not fully soluble at this 10 wt% concentration.

[2] = Storage stability in Aromatic 200 solvent at -10° C.; type: physicochemical; settings: -10° C. freezer
Protocol: Storage stability experiments of Examples 1-3 as well as Comparative Examples 4 and 5 as well as Comparative Example 6 (a 50:50 molar physical blend of Comparative Examples 4 and 5) are conducted as follows. For each Example, a calibration line is generated by preparing 0.5 and 1.7 wt% solutions of each Example using a batch of Aromatic 200 supplied from TOTAL, identified as ATOSOL 200ND, and measuring the UV/vis absorbance at these known concentrations. The solutions are heated to 60° C. with stirring overnight and allowed to cool to ambient temperature for at least several hours, preferably overnight. For the 0.5 and 1.7 wt% solutions for each marker, UV/vis measurements are prepared by diluting an aliquot of each solution (exact weight recorded) into a known amount of xylenes to target an absorbance value below approximately 2.5. […] For other Examples, several drops of the targeted 10 wt% solution are filtered and a known amount of the filtrate is diluted with a known amount of xylenes to target an absorbance value below approximately 2.5. The initial concentration is determined by measuring the absorbance value of a known concentration of the filtered and diluted aliquot taken from the targeted 10 wt% solution. The expected UV/vis absorbance value of the aliquot is calculated based on the calibration standards, and this value is compared against the actual measured absorbance value. […]

SMILES | Measured Initial Concentration [1] | Storage stability: Concentration after storage at -10° C., 4 days [2] | Solubility of calibration solution in Aromatic 200 (solids observed) ([1]; 1.7 wt% solution in Aromatic 200, heated to 60° C. overnight, cooled to ambient)
CCCCc1ccc(Nc2ccc(Nc3ccc(CCCC)cc3)c3c2C(=O)c2c(Nc4ccc(CCCC)cc4)ccc(Nc4ccc(CCCC)cc4)c2C3=O)cc1 [Comparative Example 4, 1,4,5,8-tetrakis(4-(n-butyl)phenylamino)anthracene-9,10-dione] | 7.0 wt% | 4.2 wt% | 
Cc1ccc(Nc2ccc(Nc3ccc(C)cc3)c3c2C(=O)c2c(Nc4ccc(C)cc4)ccc(Nc4ccc(C)cc4)c2C3=O)cc1 [Comparative Example 5, 1,4,5,8-tetrakis(4-methylaniline)anthracene-9,10-dione] | Solids observed at 1.7%, no measurement |  | solids are observed at 1.7 wt%
